Results published in patent US8343467B2 (Beiersdorf AG, priority 2004, dated 2013).

Tests used:
[1] = compared with scopolamine, cited from earlier work
[2] = test system: bacteria; experiment: antimicrobial / antibacterial effectiveness of glycopyrrolate alone and as enhancer; format: cell-based
From the text: Although this incorporation alone is not sufficient to destroy the bacteria, this makes them more susceptible to attack by antibacterial substances (deodorizing/antiperspirant agents) which can pass through or even destroy the membrane due to the impaired membrane integrity.

For `C[N+]1(C)CC[C@@H](OC(=O)[C@@](O)(c2ccccc2)C2CCCC2)C1` (relative stereo) [Glycopyrrolate, (±)-(R*)-3-[(S*)-(cyclopentyl hydroxyphenylacetoxy]-1,1-dimethylpyrrolidiniumbromide], the “penetration of biological membranes” value [1] is listed as “penetrates biological membranes more slowly”, the side effects ([1]; topical) is listed as “fewer side effects than scopolamine” and the antimicrobial effectiveness ([2]; glycopyrrolate alone) is listed as “no or only slight antimicrobial effectiveness”. The antibacterial effect ([2]; glycopyrrolate alone in the formulations used) was “does not show any antibacterial effect”.
